The source made the active and inactive calls.
Assays:
[1] = Shn3 3'UTR reporter inhibitors, dose response, cell-based, Clone20 osteoblasts, firefly luciferase, cherry-picked (AID 624132); type: functional;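 also: firefly luciferase luminescence from reporter carrying the Shn3 3'UTR in osteoblasts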
[2] = HepG2 cell cytotoxicity, dose response, cytotoxicity control for Shn3 inhibitor project, CellTiter-Glo, cherry-picked (AID 624134); type: functional, cell-based
[3] = biological target: T1, Fatty acid synthase (Homo sapiens, UniProt P49327); test: FAS thioesterase domain inhibitors, dose response, biochemical, endpoint fluorescence intensity, uHTS hits (AID 624327); type: functional;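 also: fluorescence from hydrolysis of an O-methyl fluorescein acyl ester substrate by the enzyme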
[4] = biological target: T1, Fatty acid synthase; test: FAS thioesterase domain inhibitors, dose response, biochemical, kinetic fluorescence intensity (AID 624326); type: functional;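 also: rate of fluorescence rise from hydrolysis of a fluorogenic O-methyl fluorescein ester substrate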
[5] = biological target: T2, Hexokinase HKDC1 (Homo sapiens, UniProt Q2TB90); test: HKDC1 hexokinase inhibitors, dose response, biochemical, W721R variant (AID 504729); type: functional
T2 sequence (Q2TB90 whole entry): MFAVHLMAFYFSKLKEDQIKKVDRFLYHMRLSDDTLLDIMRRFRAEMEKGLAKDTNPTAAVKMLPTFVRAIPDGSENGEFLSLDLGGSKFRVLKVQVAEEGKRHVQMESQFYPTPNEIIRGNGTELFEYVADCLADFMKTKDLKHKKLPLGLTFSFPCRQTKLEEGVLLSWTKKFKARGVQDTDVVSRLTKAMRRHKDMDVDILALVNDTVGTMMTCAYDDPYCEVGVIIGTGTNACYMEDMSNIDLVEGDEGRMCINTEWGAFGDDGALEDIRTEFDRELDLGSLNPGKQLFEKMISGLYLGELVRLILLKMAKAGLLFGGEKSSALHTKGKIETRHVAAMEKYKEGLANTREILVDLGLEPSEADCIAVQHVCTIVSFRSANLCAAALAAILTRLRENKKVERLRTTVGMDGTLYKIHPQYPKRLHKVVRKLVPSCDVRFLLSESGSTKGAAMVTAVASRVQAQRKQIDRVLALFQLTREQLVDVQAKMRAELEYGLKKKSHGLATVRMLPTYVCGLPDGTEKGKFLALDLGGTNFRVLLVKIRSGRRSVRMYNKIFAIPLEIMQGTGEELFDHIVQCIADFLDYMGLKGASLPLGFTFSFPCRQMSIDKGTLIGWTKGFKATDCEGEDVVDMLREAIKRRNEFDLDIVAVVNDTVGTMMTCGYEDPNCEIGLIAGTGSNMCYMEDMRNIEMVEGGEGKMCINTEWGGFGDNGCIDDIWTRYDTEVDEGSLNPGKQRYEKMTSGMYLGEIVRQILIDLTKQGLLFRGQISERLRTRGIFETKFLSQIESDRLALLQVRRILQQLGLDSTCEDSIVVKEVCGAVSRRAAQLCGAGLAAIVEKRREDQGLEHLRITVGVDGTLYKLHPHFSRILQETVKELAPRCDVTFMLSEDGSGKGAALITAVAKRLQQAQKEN

[6] = biological target: Cytochrome P450 2C19 (Homo sapiens, UniProt P33261); test: Cytochrome panel assay with activity outcomes. Panel member name: p450-cyp2c19 Compounds with AC50 equal or less than 10 uM are considered active; type: functional; conditions: read-out: AC50
[7] = biological target: Cytochrome P450 2C9 (Homo sapiens, UniProt P11712)
[8] = biological target: Mitogen-activated protein kinase 10 (Homo sapiens, UniProt P53779); test: Dose response biochemical screening assay for inhibitors of c-Jun N-Terminal Kinase 3 (JNK3). [Related pubchem assays: 746 ]
[9] = biological target: Induced myeloid leukemia cell differentiation protein Mcl-1 (Homo sapiens, UniProt Q07820); type: functional
[10] = biological target: Cytochrome P450 2D6 (Homo sapiens, UniProt P10635)
[11] = biological target: T3, Cytochrome P450 1A2 (Homo sapiens, UniProt P05177);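 also: PubChem cytochrome P450 panel assay, CYP1A2 panel member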
T3 sequence (P05177 whole entry): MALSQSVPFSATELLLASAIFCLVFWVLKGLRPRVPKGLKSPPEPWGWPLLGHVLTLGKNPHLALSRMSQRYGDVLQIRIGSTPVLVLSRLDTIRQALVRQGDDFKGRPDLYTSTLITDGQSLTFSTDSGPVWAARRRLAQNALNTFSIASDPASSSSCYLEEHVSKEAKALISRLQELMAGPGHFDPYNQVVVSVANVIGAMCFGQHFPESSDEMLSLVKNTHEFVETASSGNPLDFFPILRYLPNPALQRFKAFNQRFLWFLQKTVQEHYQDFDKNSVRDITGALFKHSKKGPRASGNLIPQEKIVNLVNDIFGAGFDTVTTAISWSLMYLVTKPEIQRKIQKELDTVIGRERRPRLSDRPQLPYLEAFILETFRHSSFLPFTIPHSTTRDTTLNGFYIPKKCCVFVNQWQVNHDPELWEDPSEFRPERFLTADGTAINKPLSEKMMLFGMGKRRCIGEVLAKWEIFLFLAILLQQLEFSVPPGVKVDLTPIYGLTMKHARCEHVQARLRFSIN

[12] = biological target: Cytochrome P450 3A4 (Homo sapiens, UniProt P08684);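 also: CYP3A4 tested as one member of a cytochrome P450 panel screen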
[13] = biological target: Large T antigen (Simian virus 40, UniProt P03070); type: functional, Betapolyomavirus macacae;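 also: Confirmatory-stage PubChem screen for compounds that inhibit SV40 T antigen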
[14] = biological target: Genome polyprotein (dengue virus type 2, UniProt P29990); test: Dengue-2 NS5 methyltransferase inhibitors, primary screen, biochemical, confirmation dose response (AID 588689); type: functional

T1 sequence (P49327 whole entry, the tested form may be a part): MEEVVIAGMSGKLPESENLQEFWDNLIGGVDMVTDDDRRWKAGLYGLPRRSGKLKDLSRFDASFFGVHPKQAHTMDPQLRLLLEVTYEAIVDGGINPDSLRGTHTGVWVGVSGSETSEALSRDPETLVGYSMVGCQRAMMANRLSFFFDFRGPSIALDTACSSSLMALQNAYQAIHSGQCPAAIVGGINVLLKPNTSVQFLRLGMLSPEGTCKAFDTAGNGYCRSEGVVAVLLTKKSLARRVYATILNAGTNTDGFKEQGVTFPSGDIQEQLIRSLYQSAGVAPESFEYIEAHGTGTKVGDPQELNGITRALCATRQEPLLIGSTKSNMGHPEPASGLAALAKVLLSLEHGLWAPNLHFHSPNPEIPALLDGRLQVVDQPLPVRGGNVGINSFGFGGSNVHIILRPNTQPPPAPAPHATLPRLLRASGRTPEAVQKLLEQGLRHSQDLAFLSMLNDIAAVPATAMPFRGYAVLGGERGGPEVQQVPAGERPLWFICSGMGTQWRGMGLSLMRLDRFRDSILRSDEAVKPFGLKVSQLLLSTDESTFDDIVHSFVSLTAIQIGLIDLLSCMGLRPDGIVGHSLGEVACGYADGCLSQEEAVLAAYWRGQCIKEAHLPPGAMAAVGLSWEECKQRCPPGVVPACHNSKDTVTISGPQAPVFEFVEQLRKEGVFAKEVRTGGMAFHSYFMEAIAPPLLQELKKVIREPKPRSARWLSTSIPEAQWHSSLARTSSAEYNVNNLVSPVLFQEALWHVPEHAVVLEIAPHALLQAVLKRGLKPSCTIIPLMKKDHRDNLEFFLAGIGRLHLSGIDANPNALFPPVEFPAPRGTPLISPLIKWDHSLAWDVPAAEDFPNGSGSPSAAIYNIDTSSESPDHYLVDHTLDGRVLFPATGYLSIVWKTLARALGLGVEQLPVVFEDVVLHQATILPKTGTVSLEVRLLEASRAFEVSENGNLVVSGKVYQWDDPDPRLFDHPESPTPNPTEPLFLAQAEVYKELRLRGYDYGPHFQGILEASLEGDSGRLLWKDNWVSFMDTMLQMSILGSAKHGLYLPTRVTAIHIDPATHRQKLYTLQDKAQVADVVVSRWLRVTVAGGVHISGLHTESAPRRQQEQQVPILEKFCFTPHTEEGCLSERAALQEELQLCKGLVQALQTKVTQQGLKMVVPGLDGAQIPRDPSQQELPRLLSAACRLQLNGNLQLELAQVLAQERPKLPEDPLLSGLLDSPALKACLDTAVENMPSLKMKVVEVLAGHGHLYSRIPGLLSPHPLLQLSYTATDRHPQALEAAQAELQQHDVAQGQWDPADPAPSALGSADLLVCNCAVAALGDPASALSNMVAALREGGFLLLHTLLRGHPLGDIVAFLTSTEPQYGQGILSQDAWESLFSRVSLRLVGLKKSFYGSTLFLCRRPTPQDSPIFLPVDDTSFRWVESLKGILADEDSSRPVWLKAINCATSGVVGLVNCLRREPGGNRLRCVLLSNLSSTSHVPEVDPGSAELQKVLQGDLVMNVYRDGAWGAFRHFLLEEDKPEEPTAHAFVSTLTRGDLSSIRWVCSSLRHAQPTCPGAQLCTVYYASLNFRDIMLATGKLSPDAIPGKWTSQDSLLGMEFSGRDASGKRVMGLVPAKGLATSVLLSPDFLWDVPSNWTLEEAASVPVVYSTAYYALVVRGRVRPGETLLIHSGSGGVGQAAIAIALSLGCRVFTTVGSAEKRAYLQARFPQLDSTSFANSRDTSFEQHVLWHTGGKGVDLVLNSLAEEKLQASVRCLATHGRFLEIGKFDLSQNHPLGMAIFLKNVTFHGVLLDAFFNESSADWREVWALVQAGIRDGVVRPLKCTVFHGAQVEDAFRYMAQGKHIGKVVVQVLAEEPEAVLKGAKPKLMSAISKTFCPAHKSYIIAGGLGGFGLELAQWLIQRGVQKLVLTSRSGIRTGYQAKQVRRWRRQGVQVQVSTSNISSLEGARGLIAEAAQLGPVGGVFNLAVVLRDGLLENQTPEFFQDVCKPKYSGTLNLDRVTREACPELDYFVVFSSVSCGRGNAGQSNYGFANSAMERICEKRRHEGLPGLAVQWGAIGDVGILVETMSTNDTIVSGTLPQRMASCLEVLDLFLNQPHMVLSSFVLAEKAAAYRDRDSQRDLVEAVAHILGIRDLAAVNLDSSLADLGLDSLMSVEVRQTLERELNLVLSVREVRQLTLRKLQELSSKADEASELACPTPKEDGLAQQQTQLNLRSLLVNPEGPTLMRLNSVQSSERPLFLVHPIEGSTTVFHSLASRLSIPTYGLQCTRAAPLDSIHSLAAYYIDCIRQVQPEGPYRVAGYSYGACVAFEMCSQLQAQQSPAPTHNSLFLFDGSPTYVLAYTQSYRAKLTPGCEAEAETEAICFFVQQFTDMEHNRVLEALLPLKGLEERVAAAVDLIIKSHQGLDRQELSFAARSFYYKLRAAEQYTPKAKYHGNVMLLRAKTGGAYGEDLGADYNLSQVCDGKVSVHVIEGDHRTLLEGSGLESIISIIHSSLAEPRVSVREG
Sequence of Induced myeloid leukemia cell differentiation protein Mcl-1 (Q07820 whole entry): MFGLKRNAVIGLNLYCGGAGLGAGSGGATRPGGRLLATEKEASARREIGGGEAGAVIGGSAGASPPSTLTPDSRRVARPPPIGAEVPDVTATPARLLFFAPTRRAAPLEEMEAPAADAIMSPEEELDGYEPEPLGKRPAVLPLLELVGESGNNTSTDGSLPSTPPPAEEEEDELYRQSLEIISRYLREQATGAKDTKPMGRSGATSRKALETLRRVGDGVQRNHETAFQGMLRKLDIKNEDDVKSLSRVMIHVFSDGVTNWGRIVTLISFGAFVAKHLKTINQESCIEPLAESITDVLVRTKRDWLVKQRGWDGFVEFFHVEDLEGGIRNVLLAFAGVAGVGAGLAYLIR
Sequence of Cytochrome P450 2C9 (P11712 whole entry): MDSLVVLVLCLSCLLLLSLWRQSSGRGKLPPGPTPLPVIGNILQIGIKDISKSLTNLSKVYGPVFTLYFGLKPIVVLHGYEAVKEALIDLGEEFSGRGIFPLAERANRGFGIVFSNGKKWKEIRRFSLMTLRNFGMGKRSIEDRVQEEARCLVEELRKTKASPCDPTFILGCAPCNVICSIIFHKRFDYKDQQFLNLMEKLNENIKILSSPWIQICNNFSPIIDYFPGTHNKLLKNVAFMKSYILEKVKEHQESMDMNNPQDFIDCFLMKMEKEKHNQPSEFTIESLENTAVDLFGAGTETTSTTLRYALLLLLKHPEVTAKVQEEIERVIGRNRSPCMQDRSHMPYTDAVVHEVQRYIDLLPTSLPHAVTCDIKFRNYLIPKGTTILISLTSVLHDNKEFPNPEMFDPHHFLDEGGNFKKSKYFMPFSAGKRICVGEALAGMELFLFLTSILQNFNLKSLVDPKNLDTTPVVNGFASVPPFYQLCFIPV
Sequence of Mitogen-activated protein kinase 10 (P53779 whole entry): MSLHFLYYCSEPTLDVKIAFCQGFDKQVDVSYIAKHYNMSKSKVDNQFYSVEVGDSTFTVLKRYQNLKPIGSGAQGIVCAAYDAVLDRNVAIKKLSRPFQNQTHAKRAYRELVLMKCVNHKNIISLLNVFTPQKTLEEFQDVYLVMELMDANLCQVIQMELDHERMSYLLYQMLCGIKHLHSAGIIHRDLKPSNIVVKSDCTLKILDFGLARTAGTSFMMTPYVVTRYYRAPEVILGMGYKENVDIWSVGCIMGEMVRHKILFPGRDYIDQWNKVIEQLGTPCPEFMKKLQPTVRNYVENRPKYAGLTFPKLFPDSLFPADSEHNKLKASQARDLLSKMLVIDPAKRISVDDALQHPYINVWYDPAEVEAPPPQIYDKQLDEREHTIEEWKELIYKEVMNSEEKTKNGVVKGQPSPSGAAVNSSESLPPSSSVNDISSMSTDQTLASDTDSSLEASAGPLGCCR
Sequence of Cytochrome P450 3A4 (P08684 whole entry): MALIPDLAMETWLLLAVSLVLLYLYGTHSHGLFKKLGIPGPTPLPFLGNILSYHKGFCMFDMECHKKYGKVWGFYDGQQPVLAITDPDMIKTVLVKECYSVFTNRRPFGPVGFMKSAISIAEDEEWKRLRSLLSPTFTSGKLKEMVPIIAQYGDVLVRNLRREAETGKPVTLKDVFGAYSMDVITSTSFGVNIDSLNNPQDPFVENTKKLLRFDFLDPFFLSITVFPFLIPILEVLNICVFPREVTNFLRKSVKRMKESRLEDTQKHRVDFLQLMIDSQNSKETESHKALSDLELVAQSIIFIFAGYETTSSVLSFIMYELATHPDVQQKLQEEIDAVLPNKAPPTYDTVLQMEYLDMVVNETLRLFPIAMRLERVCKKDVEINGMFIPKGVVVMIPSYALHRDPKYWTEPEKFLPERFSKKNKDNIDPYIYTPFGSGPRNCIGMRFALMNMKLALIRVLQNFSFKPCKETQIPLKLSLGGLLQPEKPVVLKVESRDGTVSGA
Sequence of Cytochrome P450 2C19 (P33261 whole entry): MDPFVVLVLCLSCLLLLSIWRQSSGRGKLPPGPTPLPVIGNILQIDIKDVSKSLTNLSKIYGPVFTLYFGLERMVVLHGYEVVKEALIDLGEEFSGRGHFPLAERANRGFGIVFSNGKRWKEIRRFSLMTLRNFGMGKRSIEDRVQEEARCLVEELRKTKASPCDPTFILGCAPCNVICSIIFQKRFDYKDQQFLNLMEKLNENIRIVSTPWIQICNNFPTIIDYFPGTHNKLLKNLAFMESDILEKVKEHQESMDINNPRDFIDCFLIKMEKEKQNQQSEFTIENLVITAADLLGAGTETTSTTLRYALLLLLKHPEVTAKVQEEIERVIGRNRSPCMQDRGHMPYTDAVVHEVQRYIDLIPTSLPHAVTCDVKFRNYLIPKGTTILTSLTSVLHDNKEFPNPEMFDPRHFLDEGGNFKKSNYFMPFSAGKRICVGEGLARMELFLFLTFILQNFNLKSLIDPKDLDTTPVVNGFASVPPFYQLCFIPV

Question: With `CSc1nc(N2CCN(Cc3ccc4c(c3)OCO4)CC2)c2ccccc2n1` as the compound, how does the AC50 [1] read?
Answer: 24.1 µM (active)

Question: What about the AC50 [2] of the same compound?
Answer: > 70 µM (inactive)

Question: For `COc1ccc(C(=O)N/C(=C\c2ccc([N+](=O)[O-])cc2)C(=O)NC(CCSC)C(=O)O)cc1` (centres undefined), which IC50 [3] is on record?
Answer: 7.76 µM (active)

Question: What about the IC50 [4] of the same compound?
Answer: 5.76 µM (active)

Question: For `CCCc1nc2oc3c(OC)ncnc3c2c2c1COC(C)(C)C2`, which IC50 [5] is on record?
Answer: 23 µM (inactive)

Question: Which IC50 [3] does the source give for `COc1ccc(CNC(=O)/C=C/c2cc([N+](=O)[O-])ccc2OC(F)F)cc1` here?
Answer: 1.17 µM (active)

Question: What about the IC50 [4] of the same compound?
Answer: 1.37 µM (active)

Question: Which AC50 [6] does the source give for `C[C@@]12CC[C@@H]3c4ccc(O)cc4CC[C@H]3[C@H]1C[C@@H](O)[C@H]2O` here?
Answer: 7.94 µM (inconclusive)

Question: And the AC50 [7]?
Answer: inconclusive

Question: For `Cc1cc(NC(=O)COC(=O)c2[nH]nc3ccccc23)no1`, which IC50 [8] is on record?
Answer: 62.7 µM (not active)

Question: Which IC50 [9] does the source give for `CC(=O)c1cc(C#N)c(SCc2ccccn2)nc1C` here?
Answer: 5.73 µM (not active)

Question: With `CCc1cc(=O)oc2cc(C)cc(OC(=O)c3ccco3)c12` as the compound, how does the IC50 [8] read?
Answer: > 93.1 µM (not active)

Question: Which results are given for `O=[N+]([O-])c1ccc(NC(S)=NCCc2ccccc2)cc1`?
Answer: IC50 [3]: 24.7 µM (inactive); IC50 [4]: 15 µM (active)

Question: Which AC50 [10] does the source give for `Cc1ccc(S(=O)(=O)NCCC(=O)NCc2ccccc2)cc1` here?
Answer: 25.1 µM (inconclusive)

Question: What about the AC50 [11] of the same compound?
Answer: 17.8 µM (inconclusive)

Question: What about the AC50 [12] of the same compound?
Answer: 25.1 µM (inconclusive)

Question: What about the AC50 [7] of the same compound?
Answer: inconclusive

Question: Which IC50 [3] does the source give for `COc1ccc(C2=NN(CN3C(=O)C(=O)c4ccccc43)C(c3cccc([N+](=O)[O-])c3)C2)cc1` (centres undefined) here?
Answer: 12.4 µM (active)

Question: And the IC50 [4]?
Answer: 13 µM (active)

Question: Which IC50 [13] does the source give for `O=C(O)CCC(=O)NCCc1c(/C=C2/C(=O)NC(=S)N(Cc3ccc(F)cc3)C2=O)[nH]c2ccccc12` here?
Answer: 55.4 µM (active)

Question: And the IC50 [9]?
Answer: 1.42 µM (active)

Question: What about the IC50 [14] of the same compound?
Answer: > 100 µM (active)

Question: With `CCCc1nc2c(c(=O)c3ccccc3n2C)c(=O)n1-c1ccc(F)cc1` as the compound, how does the IC50 [5] read?
Answer: 6.43 µM (active)

Reference: ChEMBL document CHEMBL1201862, “PubChem BioAssay data set” (2004)
